Data reported in patent US20060142323A1, “Dual binding site acetylcholinesterase inhibitors for the treatment of alzheimer's disease” (priority 2002, published 2006).

How the values were obtained:
β-amyloid-AChE complex = biological target: T1, β-amyloid-AChE complex (Homo sapiens, UniProt P22303); experiment: Inhibition of β-amyloid aggregation (AChE-Aβ complex, Congo Red binding); assay type: biochemical; settings: compound at its AChE IC50, Aβ1-40 0.1 mM, Aβ-AChE 200:1, 48 hours
T1 construct: purchased Sigma-Aldrich
Description: Inhibition of β-Amyloid Aggregation:
Stock solutions of Aβ1-40 at 3.5 mM were prepared in DMSO. The amount of peptide used in the assays was 0.1 mM. Human recombinant AChE (Sigma-Aldrich) was used at a molar ratio Aβ-AChE 200:1. For the aggregation studies the peptide was mixed with the appropriate amount of AChE in PBS pH 7.4 and stirred for 48 hours in -a microtiter plate at room temperature. The fibrils obtained were characterized by Congo Red (CR) binding.
For the inhibition of β-amyloid aggregation, the compounds tested were used at the IC50 defined in the previous paragraph of the biological evaluation. Propidium iodide 50 μM for comparison.

[1] = biological target: T2, AChE from human erythrocytes (Homo sapiens, UniProt P22303); experiment: AChE inhibition (from human erythrocytes), Ellman method; assay type: biochemical; settings: 10 min preincubation at 30° C., 400 μM acetylthiocholine iodide, pH 8
T2 construct: 0.02 unit/ml AChE (Sigma Chemical Co. from human erythrocytes); purchased Sigma Chemical Co; host or cells: human erythrocytes
Description: AChE Inhibition (from Human Erythrocytes)
The method of Ellman et al. (Ellman, G. L.; Courtney, K. D.; Andres, B.; Featherstone, R. M. Biochem. Pharmacol. 1961, 7, 88-95) was followed. The assay solution consisted of 0.1 M phosphate buffer pH 8, 200 μM 5,5′-dithiobis(2-nitrobenzoic acid) (DTNB, Ellan's reagent), 0.02 unit/ml AChE (Sigma Chemical Co. from human erythrocytes), and 400 μM acetylthiocholine iodide as the substrate of the enzymatic reaction. The compounds tested were added to the assay solution and pre incubated with the enzyme for 10 min at 30° C. After that period, the substrate was added. The absorbance changes at 412 nm were recorded for 5 min with a Perkin-Elmer 550 SE UV/VIS spectrometer, the reaction rates were compared, and the percent inhibition due to the presence of test compounds was calculated.

AChE from N2A cells = biological target: T3, AChE from N2A cells (Mus musculus, UniProt P21836); experiment: Neuronal AChE activity, enzyme preparation from N2A cells; assay type: biochemical; settings: pH 8, 0.5 mM acetylthiocholine iodide, read-out: IC50 AChE N2A (rat neuroblastoma)
T3 construct: The assay solution consisted of AChE from neuronal cells; endogenous in cells; host or cells: N2A neuroblastoma cells
T3 sequence (P21836 32-614): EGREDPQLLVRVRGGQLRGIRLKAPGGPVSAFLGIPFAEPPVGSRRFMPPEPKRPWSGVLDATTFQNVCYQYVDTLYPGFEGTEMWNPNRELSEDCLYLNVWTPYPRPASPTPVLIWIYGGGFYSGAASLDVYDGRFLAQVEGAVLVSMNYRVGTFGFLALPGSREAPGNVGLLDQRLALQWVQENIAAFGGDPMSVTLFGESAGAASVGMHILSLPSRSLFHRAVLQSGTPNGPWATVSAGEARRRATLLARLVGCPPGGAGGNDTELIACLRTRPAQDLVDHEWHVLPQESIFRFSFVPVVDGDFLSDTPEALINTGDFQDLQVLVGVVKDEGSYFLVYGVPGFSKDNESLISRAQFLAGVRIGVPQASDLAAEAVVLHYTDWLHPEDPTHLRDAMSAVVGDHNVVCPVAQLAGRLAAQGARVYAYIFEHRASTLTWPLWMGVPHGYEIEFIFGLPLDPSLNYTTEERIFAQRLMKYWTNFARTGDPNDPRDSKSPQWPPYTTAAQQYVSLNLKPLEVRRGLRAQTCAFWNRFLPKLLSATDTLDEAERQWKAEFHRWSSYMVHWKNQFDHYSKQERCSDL
Description: (§1) Acetylcholinesterase (AChE) enzyme preparations were obtained from SH—SY5Y, SK—N—SH and N2A cells.
(§2) CELL CULTURE: The human neuroblastoma cell line SH—SY5Y was cultured in minimum essential medium, Han's F12 medium, supplemented with 10% fetal bovine serum and 1% penicillin/streptomycin, and grown in a 5% CO2 humidified incubator at 37° C. […] The rat neuroblastoma cell line N2A was cultured in DULBECCO'S MOD EAGLE medium, supplemented with 10% fetal bovine serum and 1% penicillin/streptomycin, and grown in a 5% CO2 humidified incubator at 37° C. The cells were plated at 250 10^3 cells for each reaction, at least, 48 hours before the AChE activity measure. Cells were washed and harvested in 0.1 M sodium phosphate buffer pH 8, at 4° C.
(§3) The assay solution consisted of AChE from neuronal cells, 0.1 M phosphate buffer pH 8, 0.3 mM 5,5′-dithiobis (2-nitrobenzoic acid) (DTNB, Ellman-s reagent), and 0.5 mM acetylthiocholine iodide as the substrate of the enzymatic reaction. […] The reaction rate was calculated with, at least, triplicate measurements, and the percent inhibition due to the presence of test compound was calculated relative to the compound-free control.

AChE from SH—SY5Y cells = biological target: T4, AChE from SH—SY5Y cells (Homo sapiens, UniProt P22303); experiment: Neuronal AChE activity, enzyme preparation from SH-SY5Y cells; assay type: biochemical; settings: pH 8, 0.5 mM acetylthiocholine iodide, read-out: IC50 AChE SH-SY5Y (human neuroblastoma)
T4 construct: The assay solution consisted of AChE from neuronal cells; endogenous in cells; host or cells: SH-SY5Y human neuroblastoma cells
Description: as §1, §2, §3

AChE from SK—N—SH cells = biological target: T5, AChE from SK—N—SH cells (Homo sapiens, UniProt P22303); experiment: Neuronal AChE activity, enzyme preparation from SK-N-SH cells; assay type: biochemical
T5 construct: The assay solution consisted of AChE from neuronal cells; endogenous in cells; host or cells: SK-N-SH human neuroblastoma cells
Description: as §1, §2, §3

[2] = tested on: calcium channels in SH—SY5Y cells; experiment: Effects on calcium channels (K+ stimulated calcium entry, Fluo-4); assay type: cell-based, human; settings: 60 mM K+, 10 min preincubation
Description: Effects on Calcium Channels
We have studied if these compounds are able to block calcium channels. Calcium entry in SH—SY5Y cells was stimulated with 60 mM K^+ in 96-well plates. Cells were plated at 5·10^4 for each well, at least, 48 hours before the experiment. For measurement of intracellular calcium, SH—SY5Y were washed with Krebs/HEPES buffer, pH 7.4. and cells were loaded with the calcium indicator dye Fluo-4 (Molecular Probes) for 40 min at 37° C. followed by 15 min post incubation at room temperature. Intracellular calcium was measured fluorometrically in a Fluostar optima plate reader (BMG), with excitation wavelengths set at 485 nm and emission at 520 nm. The tested compounds were preincubated with the cells for 10 minutes before the depolarization with K^+.

[3] = tested on: SH—SY5Y cells exposed to β-amyloid fragment 25-35; experiment: Effects on β-amyloid toxicity (fragment 25-35, LDH viability); assay type: cell-based, human; settings: 1 hour pretreatment, Aβ 25-35 at 200 μM, 24 hours
Description: Effects on β-Amiloid Toxicity
We have tested if some of these molecules interfere with amyloid peptide toxicity. Cells SH—SY5Y were cultured in 96-well plates as toxicity experiments. Cells were pretreated for 1 hour with the compounds at different concentrations (from 10^−5 to 10^−9), immediately neuronal death is induced adding synthetic peptide β-amyloid, fragment 25-35 (A25-35) at 200 μM. 24 hours later cell viability was assessed with the LDH assay; results are reported relative to untreated wells.

AChE peripheral site = AChE peripheral site (Homo sapiens, UniProt P22303); experiment: Propidium competition (fluorescence); assay type: binding; settings: 20 μM propidium iodide, AChE incubated at least 6 hours with compound
Description: Fluorescence was measured in a Fluostar optima plate reader (BMG). Measurements were carried out in 100 μl solution volume, in 96-well plates. The buffer used was 1 mM Tris/HCl, pH 8.0. […] AChE was incubated, at least 6 hours, with the molecules at different concentrations. 20 μM propidium iodide was added 10 min before fluorescence measurement.

[4] = biological target: T6, AChE from bovine erythrocytes (Bos taurus, UniProt P23795); experiment: Acetylcholinesterase (AChE) inhibition (from bovine erythrocytes), Ellman method at 30° C., Digiscan 340T; assay type: biochemical; settings: bovine erythrocytes AChE, 30° C., 5 min preincubation; read-out: IC50 AchE
T6 construct: 0.02 units AChE (Sigma Chemical Co. from bovine erythrocytes); purchased Sigma Chemical Co; host or cells: bovine erythrocytes
T6 sequence (P23795 31-614 isoform P23795-2 limits assumed): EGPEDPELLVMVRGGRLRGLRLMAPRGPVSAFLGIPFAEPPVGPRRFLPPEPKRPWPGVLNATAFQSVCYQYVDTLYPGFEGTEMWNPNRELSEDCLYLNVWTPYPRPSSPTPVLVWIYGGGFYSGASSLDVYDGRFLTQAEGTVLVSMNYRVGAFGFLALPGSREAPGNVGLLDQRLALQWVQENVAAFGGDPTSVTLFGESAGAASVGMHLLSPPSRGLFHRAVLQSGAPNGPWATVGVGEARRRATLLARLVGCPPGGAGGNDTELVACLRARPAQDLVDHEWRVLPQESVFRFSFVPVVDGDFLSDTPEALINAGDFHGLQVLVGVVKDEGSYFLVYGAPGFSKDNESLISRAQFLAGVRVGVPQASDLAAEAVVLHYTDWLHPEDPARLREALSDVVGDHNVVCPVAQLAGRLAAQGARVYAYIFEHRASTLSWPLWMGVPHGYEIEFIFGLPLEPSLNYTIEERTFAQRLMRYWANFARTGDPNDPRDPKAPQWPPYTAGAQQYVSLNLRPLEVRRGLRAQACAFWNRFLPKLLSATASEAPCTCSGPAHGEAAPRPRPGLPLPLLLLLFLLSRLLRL
Description: Acetylcholinesterase (AChE) Inhibition (from Bovine Erythrocytes)
AChE inhibitory activity was evaluated at 30° C. by the colorimetric method reported by Ellman [Ellman, G. L.; Courtney, K. D.; Andres, B.; Featherstone, R. M. Biochem. Pharmacol. 1961, 7, 88-95]. The assay solution consisted of 0.1 M phosphate buffer pH 8, 0.3 mM 5,5′-dithiobis (2-nitrobenzoic acid) (DTNB, Ellman's reagent), 0.02 units AChE (Sigma Chemical Co. from bovine erythrocytes), and 0.5 mM acetylthiocholine iodide as the substrate of the enzymatic reaction. The compounds tested were added to the assay solution and preincubated with the enzyme for 5 min at 30° C. After that period, the substrate was added. The absorbance changes at 405 nm were recorded for 5 min with a microplate reader Digiscan 340T, the reaction rates were compared, and the percent inhibition due to the presence of test compounds was calculated. The reaction rate was calculated with, at least, triplicate measurements, and the percent inhibition due to the presence of test compound was calculated relative to the compound-free control.

BuChE from human serum = biological target: T7, BuChE from human serum (Homo sapiens, UniProt P06276); experiment: Butyrylcholinesterase (BuChE) inhibition (from human serum); assay type: biochemical; settings: human serum BuChE, 30° C., 10 min preincubation; read-out: IC50 BuChE
T7 construct: The assay solution consisted of 0.01 units BuChE from human serum; from tissue; host or cells: human serum
Description: Butyrylcholinetersae (BuChE) Inhibition (from Human Serum)
BuChE inhibitory activity was evaluated at 30° C. by the colorimetric method reported by Ellman (Ellman, G. L.; Courtney, K. D.; Andres, B.; Featherstone, R. M. Biochem. Pharmacol. 1961, 7, 88-95]. The assay solution consisted of 0.01 units BuChE from human serum, 0.1 M sodium phosphate buffer pH 8, 0.3 mM 5,5′-dithiobis (2-nitrobenzoic acid) (DTNB, Ellman's reagent), and 0.5 mM butylthiocholine iodide as the substrate of the enzymatic reaction. Enzyme activity was determined by measuring the absorbance at 405 nm during 5 minutes with a microplate reader Digiscan 340T. The tested compounds were preincubated with the enzyme for 10 minutes at 30° C. The reaction rate was calculated with, at least, triplicate measurements.

[5] = tested on: human neuroblastoma cell line SH—SY5Y; experiment: Toxicity measurement (LDH) in SH-SY5Y cells; assay type: cell-based; settings: 24 hours exposure
Description: The cytotoxicity effect of the molecules was tested in the human neuroblastoma cell line SH—SY5Y. These cells were cultured in 96-well plates in minimum essential medium, Han's F12 medium, supplemented with 10% fetal bovine serum, 1% glutamine and 1% penicillin/streptomycin, and grown in. a 5% CO2 humidified incubator at 37° C.
The cells were plated at 10^4 cells for each well, at least, 48 hours before the toxicity measure. Cells were exposed for 24 hours to the compounds at different concentrations (from 10^−5 to 10^−9), quantitative assessment of cell death was made by measurement of the intracellular enzyme lactate dehydrogenase (LDH) (citotoxicity detection kit, Roche). The cuantity of LDH was evaluated in a microplate reader Anthos 2010, at 492 and 620 nm. Controls were taken as 100% viability.

[6] = biological target: T6, AChE from bovine erythrocytes; experiment: AChE inhibition (from bovine erythrocytes), Ellman method at 25° C., Fluostar reader; assay type: biochemical; settings: 0.5 mM acetylthiocholine iodide, pH 8, 10 min preincubation
Description: AChE Inhibition (from Bovine Erythocytes)
AChE inhibitory activity was evaluated at 25° C. by the colorimetric method reported by Ellman (Ellman, G. L.; Courtney, K. D.; Andres, B.; Featherstone, R. M. Biochem. Pharmacol. 1961, 7, 88-95). The assay solution consisted on 0.02 unit/ml AChE from bovine erythrocytes, 0.1 M sodium phosphate buffer pH 8, 0.3 mM 5,5′-dithiobis (2-nitrobenzoic […]), and 0.5 mM acetylthiocholine iodide as the substrate of the enzymatic reaction. Enzyme activity was determined by measuring the absorbance at 405 nm during 10 minutes with a Fluostar optima plate reader (BMG). The tested compounds were preincubated with the enzyme for 10 minutes at 30° C.

AChE peripheral site, sequence (P22303 32-614): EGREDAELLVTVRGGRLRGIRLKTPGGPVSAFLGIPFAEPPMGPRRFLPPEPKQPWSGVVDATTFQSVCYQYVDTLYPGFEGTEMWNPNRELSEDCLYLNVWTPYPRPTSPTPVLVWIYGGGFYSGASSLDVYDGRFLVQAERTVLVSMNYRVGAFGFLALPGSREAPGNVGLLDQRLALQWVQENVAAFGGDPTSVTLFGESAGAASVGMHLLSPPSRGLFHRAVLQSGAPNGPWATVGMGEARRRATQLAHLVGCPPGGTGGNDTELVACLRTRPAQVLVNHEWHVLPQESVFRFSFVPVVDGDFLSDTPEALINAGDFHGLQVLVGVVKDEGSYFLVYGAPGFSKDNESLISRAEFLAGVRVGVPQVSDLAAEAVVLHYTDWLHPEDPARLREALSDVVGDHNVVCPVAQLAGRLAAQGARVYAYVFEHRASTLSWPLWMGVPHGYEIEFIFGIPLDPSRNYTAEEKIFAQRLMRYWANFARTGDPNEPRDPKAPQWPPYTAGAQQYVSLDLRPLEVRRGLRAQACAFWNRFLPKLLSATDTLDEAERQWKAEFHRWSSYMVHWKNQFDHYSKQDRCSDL
T7 sequence (P06276 29-602): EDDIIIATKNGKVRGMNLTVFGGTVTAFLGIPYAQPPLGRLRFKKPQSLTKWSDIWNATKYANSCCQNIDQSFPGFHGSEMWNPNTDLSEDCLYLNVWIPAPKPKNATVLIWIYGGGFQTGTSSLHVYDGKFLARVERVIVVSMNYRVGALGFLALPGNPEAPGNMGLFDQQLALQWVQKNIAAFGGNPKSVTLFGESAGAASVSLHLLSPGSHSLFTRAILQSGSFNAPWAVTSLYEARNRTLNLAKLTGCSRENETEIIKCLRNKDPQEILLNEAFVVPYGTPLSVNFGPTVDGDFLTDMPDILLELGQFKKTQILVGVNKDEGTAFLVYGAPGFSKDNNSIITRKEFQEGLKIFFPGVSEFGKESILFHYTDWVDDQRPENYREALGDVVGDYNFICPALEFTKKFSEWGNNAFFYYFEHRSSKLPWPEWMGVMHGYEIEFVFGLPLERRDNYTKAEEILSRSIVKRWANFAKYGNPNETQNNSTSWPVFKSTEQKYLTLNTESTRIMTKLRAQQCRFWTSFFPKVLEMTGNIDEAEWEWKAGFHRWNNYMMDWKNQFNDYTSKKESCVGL
T2 sequence (P22303 32-617 isoform P22303-2 limits assumed): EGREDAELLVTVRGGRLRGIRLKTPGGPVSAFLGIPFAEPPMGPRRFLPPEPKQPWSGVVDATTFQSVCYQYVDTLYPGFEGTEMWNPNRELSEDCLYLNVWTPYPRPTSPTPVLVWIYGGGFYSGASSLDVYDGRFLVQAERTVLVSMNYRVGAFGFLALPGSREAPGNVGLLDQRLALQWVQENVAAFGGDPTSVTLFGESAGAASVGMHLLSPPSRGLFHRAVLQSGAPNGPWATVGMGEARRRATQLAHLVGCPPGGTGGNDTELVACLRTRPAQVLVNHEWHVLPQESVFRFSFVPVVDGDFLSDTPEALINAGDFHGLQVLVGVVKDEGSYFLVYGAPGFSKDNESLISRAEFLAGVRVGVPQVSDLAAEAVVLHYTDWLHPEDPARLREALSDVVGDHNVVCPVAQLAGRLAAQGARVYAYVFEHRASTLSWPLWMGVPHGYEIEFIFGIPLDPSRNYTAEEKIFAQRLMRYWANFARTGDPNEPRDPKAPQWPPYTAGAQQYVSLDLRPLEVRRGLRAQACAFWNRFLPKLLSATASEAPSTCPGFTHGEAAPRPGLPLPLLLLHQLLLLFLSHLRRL
T1 sequence (P22303 32-614, one chain of several): as the sequence (P22303 32-614) above
T5 sequence (P22303 32-614): as above
T4 sequence (P22303 32-614): as above

COc1cc2c(cc1OC)C(=O)C(CNCCCCCCCNc1c3c(nc4ccccc14)CCCC3)C2 (stereo not shown) [Compound 1, 5,6-Dimethoxy-2-{[7-(1,2,3,4-tetrahydro-acridin-9-ylamino)-heptylamino]-methyl}-indan-1-one]
reduction of the β-amyloid-AChE complex aggregation (β-amyloid-AChE complex): 18.7%
IC50 [1]: 0.025 µM
IC50 (AChE from N2A cells): 0.209 µM
IC50 (AChE from SH—SY5Y cells): 4.35 µM
IC50 (AChE from SK—N—SH cells): 0.109 µM

O=C1c2ccccc2C(=O)N1CCCCCCCNc1c2ccccc2nc2ccccc12 [Compound 7, 2-[7-(Acridin-9-ylamino)-heptyl]-isoindole-1,3-dione]
Calcium channel blockade [2]: 10 µM
inhibition of Aβ(25-35) toxicity [3]: 1 µM
Propidium competition (AChE peripheral site): 100 µM
IC50 [4]: 1.5 µM
IC50 (BuChE from human serum): 0.7 µM
Toxicity [5]: >100 µM

CCCn1s/c(=N\CCCCCCCNc2c3c(nc4ccccc24)CCCC3)n(CC)c1=O [Compound 16, 4-Ethyl-2-propyl-5-[7-(1,2,3,4-tetrahydro-acridin-9-ylamino)-heptyl-imino]-[1,2,4]thiadiazolidin-3-one]
Propidium competition (AChE peripheral site): >100 µM
IC50 [4]: 0.45 µM
IC50 [6]: 0.203 µM
IC50 (BuChE from human serum): 0.02 µM
Toxicity [5]: 50 µM
